Columns and labels:
SQV-4 = biological target: T1, SQV-4 (Caenorhabditis elegans, UniProt Q19905, T2A); format: biochemical, C. elegans; details: UDP-glucose replaced; 100 μM NAD+ and 250 μM nucleotide sugar
T1 construct: were used for PCR-amplification of the sqv-4 ORF, and the resulting product was digested with NcoI and XhoI and cloned into pET21d; made in house; host or cells: E. coli BL21 pLysS, pET21d; soluble fraction used without purification
Description: The sqv-4 coding sequences corresponding to the wild-type, n2827, and n2840 alleles were cloned into the pET21d E. coli expression vector and transformed into BL21 pLysS. The oligonucleotides 5′-[…]-3′ (SEQ ID NO:53) and 5′-[…]-3′ (SEQ ID NO:54) were used to generate R353H n2827 and T4101 n2840 mutations, respectively, by site-directed mutagenesis. The oligonucleotides 5′-[…]-3′ (SEQ ID NO:55) and 5′-[…]-3′ (SEQ ID NO:56) were used for PCR-amplification of the sqv-4 ORF, and the resulting product was digested with NcoI and XhoI and cloned into pET21d. All three proteins have a threonine to alanine mutation in the second amino acid because of the addition of an NcoI site at the 5′ end. SQV-4 expression was induced by incubation with 1 mM IPTG for three to four hours at 37° C. E. coli were pelleted and resuspended in 50 mM Tris-HCl pH 7.5, 1 mM DTT, 1 mM EDTA, 1 mM PMSF, 2 μg/ml pepstatin A, and aprotinin and lysed using a French pressure cell. The soluble fraction was separated from the insoluble inclusion bodies by centrifugation at 12,000 g for 20 minutes.
All assays were performed at room temperature (20 to 22° C.) in 50 mM Tris-HCl, 2 mM dithiothrietol (DTT), pH 8.7. The initial velocity of the reaction was determined from time points during the first 60 seconds after addition of the SQV-4 extract.

chondroitin synthase [1] = experiment: GlcAT (glucuronyl transferase) assay of chondroitin synthase activity in worm protein extracts; format: biochemical; details: extract genotype sqv-5/sqv-5 (sqv-5(n3611))
Experimental: (§1) sqv-5(n3611), sqv-5(n3611)/hT2, and wild-type (N2) animals were used to prepare worm protein extracts. These extracts were tested for chondroitin synthase activity using standard methods, for example, in DeAngelis et al., (J. Biol. Chem. 27:24124-24129, 2000).
(§2) A desulfated chondroitin acceptor was used for the GalNAcT (N-acetylgalactosamyl transferase) assay. Desulfated and β-glucuronidase-treated chondroitin acceptor was used for the GlcAT (glucuronyl transferase) assay.
(§3) The enzymatic activity of SQV-5 was assayed as follows. SQV-5(n3611), sqv-5(n3611)/hT2, and wild-type N2 hermaphrodites were picked as L4 larvae by visual examination of the vulva using a dissecting microscope. The worms staged were allowed to grow for an additional twenty-three to twenty-seven hours at 22° C., re-examined, then transferred to 1.7-ml plastic tubes containing sterile water. The staged worms were washed once with water and twice with 50 mM Tris, pH 7.5, then frozen in a 50 μl volume using liquid nitrogen, and stored at −70° C.
(§4) Worm extracts were assayed for GIcAT glucoronosyltransferase activity by combining 1.3×10^5 cpm UDP-^3H-glucuronic acid donor (NEN), 6 μg β-glucuronidase-treated chondroitin acceptor, and 2.7 μg worm extract in a 25 μl reaction volume containing 0.05% Triton X-100, 10 mM MnCl2, and 100 μM ATP, pH 6.5. GalNAcT activity was detected by combining 1.3 to 3×10^5 cpm UDP-^3H-GalNAc donor (NEN), 12 μg chondroitin acceptor, and 6.7 μg worm extract in a 25 μl reaction volume containing 0.05% Triton X-100 and 10 mM MnCl2, pH 6.5. […] Pelleted material was resuspended in water and counted by liquid scintillation.
(§5) The chondroitin acceptor used was prepared as follows. […] Uronic acid concentration of both preparations was determined by the Carbazole method (Bitter, et al., Anal. Biochem. 4:330-334, 1962).

chondroitin synthase [2] = biological target: T2, chondroitin synthase (Caenorhabditis elegans, UniProt Q7Z1Z1); experiment: as above; format: biochemical
T2 construct: wild-type (N2) animals were used to prepare worm protein extracts; from tissue; host or cells: whole C. elegans hermaphrodites (young adults), sonicated protein extract
T2 sequence (Q7Z1Z1 1-736): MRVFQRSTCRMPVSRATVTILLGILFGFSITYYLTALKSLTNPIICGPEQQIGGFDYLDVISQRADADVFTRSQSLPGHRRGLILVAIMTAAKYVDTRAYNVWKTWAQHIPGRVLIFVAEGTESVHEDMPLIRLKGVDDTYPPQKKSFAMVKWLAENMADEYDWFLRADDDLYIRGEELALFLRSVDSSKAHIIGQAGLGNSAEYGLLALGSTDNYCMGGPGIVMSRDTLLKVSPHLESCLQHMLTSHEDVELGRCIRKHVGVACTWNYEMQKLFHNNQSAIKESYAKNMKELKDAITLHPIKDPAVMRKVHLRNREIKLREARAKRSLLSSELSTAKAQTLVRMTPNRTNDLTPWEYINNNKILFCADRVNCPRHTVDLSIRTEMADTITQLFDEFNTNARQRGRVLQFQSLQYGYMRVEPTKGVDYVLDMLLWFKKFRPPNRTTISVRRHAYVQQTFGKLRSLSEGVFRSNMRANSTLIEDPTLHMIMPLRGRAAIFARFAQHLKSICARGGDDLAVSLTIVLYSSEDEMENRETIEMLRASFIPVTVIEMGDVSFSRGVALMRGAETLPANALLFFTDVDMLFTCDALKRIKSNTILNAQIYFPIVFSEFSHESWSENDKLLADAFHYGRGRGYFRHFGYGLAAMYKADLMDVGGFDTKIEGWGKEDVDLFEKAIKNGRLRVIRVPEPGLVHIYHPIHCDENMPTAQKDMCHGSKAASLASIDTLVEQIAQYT
Experimental: as §1, §2, §3, §4, §5

T1 sequence (Q19905 whole entry T2A): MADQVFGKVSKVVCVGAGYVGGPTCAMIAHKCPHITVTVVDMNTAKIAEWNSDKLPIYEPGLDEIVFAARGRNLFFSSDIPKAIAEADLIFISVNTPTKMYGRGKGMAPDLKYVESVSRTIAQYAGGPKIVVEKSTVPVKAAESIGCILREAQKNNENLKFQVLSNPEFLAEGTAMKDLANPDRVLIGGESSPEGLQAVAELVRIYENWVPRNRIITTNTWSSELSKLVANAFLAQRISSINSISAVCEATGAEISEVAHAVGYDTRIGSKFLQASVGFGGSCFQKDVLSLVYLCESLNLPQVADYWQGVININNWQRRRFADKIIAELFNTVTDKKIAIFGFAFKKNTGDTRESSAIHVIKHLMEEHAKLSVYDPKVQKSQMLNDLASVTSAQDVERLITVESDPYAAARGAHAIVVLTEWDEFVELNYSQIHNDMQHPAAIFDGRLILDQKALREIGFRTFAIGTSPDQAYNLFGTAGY

Q: O=C(O)[C@H]1O[C@H](OP(=O)(O)OP(=O)(O)OC[C@H]2O[C@@H](n3ccc(=O)[nH]c3=O)[C@H](O)[C@@H]2O)[C@H](O)[C@@H](O)[C@@H]1O [UDP-glucuronic acid] was tested. Which “NAD+ reduction” value (SQV-4) did it give?
A: undetectable

Q: What about the CPM (chondroitin synthase [1]) of the same molecule?
A: 109 CPM

Q: What about the CPM (chondroitin synthase [2]; extract genotype +/+ (wild-type)) of the same molecule?
A: 1820 CPM

Q: And the CPM (chondroitin synthase [2]; extract genotype +/sqv-5 (sqv-5(n3611)/hT2))?
A: 1369 CPM
